Reference: ChEMBL document CHEMBL1151600, “6-Bromo-3-nitroflavone, a new high affinity benzodiazepine receptor agonist recognizes two populations of cerebral cortical binding sites” (Bioorg Med Chem Lett, 1997)
Activity calls are given as the source filed them. The calls are words filed in the database; no cut-off is given here.

What was measured:
[1] = tested on: Mus musculus; assay: Anxiolytic activity in mice at 100 ug/kg; assay type: functional
[2] = molecular target: GABA-A receptor; anion channel; assay: Inhibition of [3H]flunitrazepam [3H]FNZ) binding to GABA-A Benzodiazepine receptor of synaptosomal membranes from rat hippocampus
[3] = molecular target: GABA-A receptor; anion channel; assay: Inhibition of [3H]flunitrazepam [3H]FNZ) binding to GABA-A Benzodiazepine receptor of synaptosomal membranes from rat striatum
[4] = molecular target: GABA-A receptor; anion channel; assay: Inhibition of [3H]zolpidem binding to GABA-A Benzodiazepine receptor of synaptosomal membranes from rat cerebral cortex; assay type: tissue-based
[5] = molecular target: GABA-A receptor; anion channel (Rattus norvegicus) (UniProt O09028+P15431+P18506+P18508+P19969+P20236+P23574+P23576+P28471+P28473+P30191+P62813+P63079+P63138+Q91ZM7+Q9ES14); assay: Inhibition of [3H]flunitrazepam [3H]FNZ) binding to GABA-A benzodiazepine receptor of cortical membranes +/- 100 uM GABA (Partial agonist)
[6] = molecular target: GABA-A receptor; anion channel; assay: Inhibition of [3H]flunitrazepam [3H]FNZ) binding to GABA-A Benzodiazepine receptor of synaptosomal membranes from rat spinal cord; assay type: tissue-based
[7] = tested on: Mus musculus; assay: Anxiolytic activity in mice at 0.01 to 0.3 mg/kg intraperitoneal administration; assay type: functional, organism-based
[8] = molecular target: GABA-A receptor; anion channel; assay: Inhibition of [3H]flunitrazepam [3H]FNZ) binding to GABA-A Benzodiazepine receptor of synaptosomal membranes from rat cerebral cortex; assay type: tissue-based
[9] = molecular target: GABA-A receptor; anion channel; assay: Inhibition of [3H]flunitrazepam [3H]FNZ) binding to GABA-A Benzodiazepine receptor of synaptosomal membranes from rat cerebellum; assay type: tissue-based
[10] = molecular target: GABA-A receptor; anion channel; assay: Inhibition of [3H]zolpidem binding to GABA-A Benzodiazepine receptor of synaptosomal membranes from rat cerebellum; assay type: tissue-based

CN1C(=O)CN=C(c2ccccc2)c2cc(Cl)ccc21 [DIAZEPAM]
Anxiolytic activity [1]: 35

O=c1cc(-c2cccc([N+](=O)[O-])c2)oc2ccc(Br)cc12
Ki [2]: 9.6 nM | Ki [3]: 9.8 nM | Ki [4]: 3.8 nM | GABA shift [5]: 1.38 | Ki [6]: 12.7 nM | Anxiolytic affect [7]: Active | Ki [8]: 1.2 nM | Ki [9]: 3.6 nM | Ki [10]: 3 nM

O=c1cc(-c2ccc([N+](=O)[O-])cc2)oc2ccc(Br)cc12
Ki [8]: 220 nM
